Patent EP0524718A1, “Polyurethane hydrogel compositions for iontophoretic drug delivery” (GENSIA PHARMACEUTICALS, INC., priority 1991, dated 1993)

Test: Drug stability in hydrogel matrix electrode pads (isocratic HPLC assay)
Format: physicochemical
Details: in Hypol Hydrogel matrix, room temperature and 4°C, after six months
Description: Stability of Arbutamine in electrode pads using the hydrogel matrix prepared from Hypol Hydrogel prepolymer was studied using the 3M Red Dot™ Electrode Construction. […] The matrix incorporating the drug was placed in the 3M Red Dot electrode (after removing the gel supplied with the electrode). The electrode was secured in an aluminum pouch with or without a nitrogen flush (as noted). Drug stability studies were carried out at room temperature and 4°C.

With `Cl.Oc1ccc(CCCCNCC(O)c2ccc(O)c(O)c2)cc1` (stereo not shown) [Arbutamine, 1-(3,4-dihydroxyphenyl)-2-(4-(4-hydroxyphenyl)butylamino)ethanol hydrochloride] the drug degradation was “no significant drug degradation”.
